Experimental data reported in paper PMC4823791, “A dual drug regimen synergistically blocks human parainfluenza virus infection” (Scientific Reports, 2016).

Legend:
[1] = molecular target: T1, hPIV-3 HN (haemagglutinin-neuraminidase) (Human parainfluenza 3 virus (strain NIH 47885), UniProt P08492); experiment: fluorogenic MUN neuraminidase inhibition screen; format: biochemical
Excerpt: fluorogenic MUN neuraminidase inhibition screen on hPIV-3 HN (haemagglutinin-neuraminidase) | Evans blue and erythrosine sodium, with a neuraminidase inhibition of […]

[2] = molecular target: T1, hPIV-3 HN (haemagglutinin-neuraminidase); experiment: STD-NMR; format: binding; details: 5 mM zanamivir alone, 50 mM NaOAc, 5 mM CaCl2, pD 4.6, 283 K; purified UV-inactivated virus particles
[3] = molecular target: T1, hPIV-3 HN (haemagglutinin-neuraminidase); experiment: Lineweaver-Burk kinetics, MUN fluorescence; format: biochemical; details: virus particles; MUN 2-20 mM, so Km lies above the tested range (extrapolated): unreliable
Method: Lineweaver-Burk kinetics, MUN fluorescence on hPIV-3 HN (haemagglutinin-neuraminidase) | constant (KM) value ... was calculated from this point of convergence

[4] = molecular target: T1, hPIV-3 HN (haemagglutinin-neuraminidase); experiment: fluorogenic MUN neuraminidase inhibition assay; format: biochemical; details: neuraminidase activity; 2 mM MUN, pH 4.6, 5 mM CaCl2, 37 °C, 30 min; PEG-precipitated intact virus; non-competitive
[5] = molecular target: T1, hPIV-3 HN (haemagglutinin-neuraminidase); experiment: Lineweaver-Burk kinetics, MUN fluorescence; format: biochemical; details: non-competitive; MUN 2-20 mM, suramin 0, 10, 16 μM; virus particles

T1 sequence (P08492 whole entry): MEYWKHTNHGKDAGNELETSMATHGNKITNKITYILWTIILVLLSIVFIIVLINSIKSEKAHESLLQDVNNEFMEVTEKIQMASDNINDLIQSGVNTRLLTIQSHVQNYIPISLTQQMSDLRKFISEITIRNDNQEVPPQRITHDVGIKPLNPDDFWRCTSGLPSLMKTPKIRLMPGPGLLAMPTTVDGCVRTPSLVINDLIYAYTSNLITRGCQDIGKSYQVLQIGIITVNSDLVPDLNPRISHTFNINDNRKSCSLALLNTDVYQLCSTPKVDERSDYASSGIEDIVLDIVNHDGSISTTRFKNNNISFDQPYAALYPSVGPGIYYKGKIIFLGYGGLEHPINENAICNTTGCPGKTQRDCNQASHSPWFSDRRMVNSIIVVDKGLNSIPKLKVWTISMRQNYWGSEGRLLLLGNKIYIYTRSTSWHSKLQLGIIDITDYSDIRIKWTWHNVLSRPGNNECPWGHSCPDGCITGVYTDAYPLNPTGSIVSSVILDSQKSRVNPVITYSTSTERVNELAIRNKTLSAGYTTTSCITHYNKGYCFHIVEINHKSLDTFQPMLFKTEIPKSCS

SMILES: Cc1cc(-c2ccc(/N=N/c3ccc4c(S(=O)(=O)O)cc(S(=O)(=O)O)c(N)c4c3O)c(C)c2)ccc1/N=N/c1ccc2c(S(=O)(=O)O)cc(S(=O)(=O)O)c(N)c2c1O [Evans blue]
- inhibition at 100 µM [1]: 79.4 ± 1.8%

SMILES: CC(=O)N[C@H]1[C@H]([C@H](O)[C@H](O)CO)OC(C(=O)O)=C[C@@H]1N=C(N)N [compound 3, zanamivir]
- STD-NMR [2]: STD-NMR signals of both drugs were obtained, thus confirming their binding to HN

SMILES: CC(=O)N[C@H]1[C@H]([C@H](O)[C@H](O)CO)O[C@@](Oc2ccc3c(C)cc(=O)oc3c2)(C(=O)O)C[C@@H]1O [compound 6, 2′-(4-methylumbelliferyl) α-D-N-acetylneuraminide]
- KM [3]: 30.3 ± 1.02 mM

SMILES: Cc1ccc(C(=O)Nc2ccc(S(=O)(=O)O)c3cc(S(=O)(=O)O)cc(S(=O)(=O)O)c23)cc1NC(=O)c1cccc(NC(=O)Nc2cccc(C(=O)Nc3cc(C(=O)Nc4ccc(S(=O)(=O)O)c5cc(S(=O)(=O)O)cc(S(=O)(=O)O)c45)ccc3C)c2)c1 [compound 7, suramin]
- IC50 [4]: 13.5 µM
- Ki [5]: 5.06 ± 0.62 µM

SMILES: O=C1OC2(c3ccccc31)c1cc(I)c(O)c(I)c1Oc1c2cc(I)c(O)c1I [erythrosine sodium]
- inhibition at 100 µM [1]: 92.8 ± 0.9%
